The experiment has as its system vWF. The experiment in a line: Cultured Human Endothelial Cell vWF Expression Assay. The experiment is classed as cell-based. The settings on record: human iPSC-derived endothelial cells, 24h treatment, immunofluorescence intensity, vs DMSO control. The procedure:
Human induced-pluripotent stem cell derived endothelial cells and accompanying growth media were purchased from Cellular Dynamics International. ECs were cultured according to the manufacturer's protocol (Cellular Dynamics International). ECs were plated at a density of 10′000-15′000 cells/cm^2 in culture vessels which have been coated with fibronectin (Invitrogen) and maintained in a low oxygen incubator (37° C., 5% CO2, 5% O2). The EC maintenance media was exchanged every other day and comprised of VascuLife Basal medium +VascuLife VEGF medium complete kit (Lifeline Cell Technologies). For all experiments ECs of passage 0 or 1 were used. The Celastrol used was a synthetic organic chemical manufactured in the United States and purchased from Novus (catalog reference number NBP2-29362). vWF primary antibody was obtained from Abcam (ab6994), tubulin primary antibody was obtained from Abcam (ab7291), and the secondary antibodies were Alexa fluor (anti-mouse and anti-rabbit) obtained from Thermo Fisher Scientific.
Endothelial cells were plated into 96-well glass-bottom plates at a density of 10,000 cells per well. […] Quantification of the fluorescence intensity (which is indicative of protein levels) was performed using the MetaXpress software. […]
The figure (FIG. 1) depicts the quantification of the data for human endothelial cells treated with celastrol as described above. […]

On to `CC1=C(O)C(=O)C=C2C1=CC=C1[C@@]2(C)CC[C@@]2(C)[C@@H]3C[C@](C)(C(=O)O)CC[C@]3(C)CC[C@]12C` [Celastrol, 10-Hydroxy-2,4a,6a,9,12b,14a-hexamethyl-11-oxo-1,2,3,4,4a,5,6,6a,11,12b,13,14,14a,14b-tetradecahydro-picene-2-carboxylic acid], for which the “vWF protein expression (normalized by the expression of tubulin)” value runs as follows: (1 μM celastrol) “significantly (***p<0.001) reduces vWF protein expression”; (10 μM celastrol) “significantly (***p<0.001) reduces vWF protein expression”.

For the origin of these results see patent publication US11446312B2, “Compounds that modulate von Willebrand factor levels and their use in the treatment of blood disorders” (SOCIETE DES PRODUITS NESTLE S.A., priority 2018, dated 2022).
